Measurements published in patent publication US12570639B2, “Tetrahydroquinoline derivative and medicinal use thereof” (Toray Industries, Inc., priority 2020, dated 2026).

These compounds were tested on Human fibrosarcoma cells (HT-1080 cells) (assay: In vitro inhibitory action against ferroptosis (Erastin-induced cell death, Cell Counting Kit-8)). Conditions: evaluation concentration 30 μmol/L, Erastin 3 μmol/L, 24 hours.
Type: cell-based
Description: The inhibitory action against ferroptosis of the tetrahydroquinoline derivative (I) or a pharmaceutically acceptable salt thereof was evaluated with Human fibrosarcoma cells (HT-1080 cells), by using, as an index, the inhibitory action against the cell death induced by treatment with a ferroptosis inducer, Erastin.
HT-1080 cells (ATCC) were cultured in a mixture (hereinafter referred to as vehicle) composed of DMEM/F12 (Thermo Fisher Scientific, Inc.), a final concentration of 10% fetal bovine serum (Thermo Fisher Scientific, Inc.), and a final concentration of 1% penicillin-streptomycin solution (Nacalai Tesque, Inc.). Cells were seeded into 96-well plates (Corning Inc.) at 5×10^4 cells/well and cultured overnight.
A test compound was dissolved in DMSO, and the resulting solution was diluted in the vehicle to a final concentration of 1% DMSO and then used. […] Thirty minutes after the addition of the test compound, Erastin (Cayman Chemical Co.) diluted in the vehicle at a final concentration of 3 μmol/L was added to wells. The wells added with the test compound and Erastin were grouped as “test compound,” and the wells added with no test compound and no Erastin were grouped as “background,” and the wells added with no test compound but with Erastin were grouped as “control.” Twenty-four hours after the addition of Erastin, 5 μL of Cell Counting Kit-8 (Dojindo Laboratories) was added to each well and incubated for 4 hours, and the absorbance at 450 nm was then measured for each well (N=2). […] Ferroptosis inhibition rate (%)=[1−{(Average absorbance value at 450 nm measured when a test compound is added)−(Average absorbance value at 450 nm measured in the background)}/{(Average absorbance value at 450 nm measured in the control)−(Average absorbance value at 450 nm measured in the background)}]×100 Equation 1

For “7-fluoro-(1H-pyrazol-4-yl)-1,2,3,4-tetrahydroquinoline [Example 140]”, which “Ferroptosis inhibition rate (%)” value is on record?
The value was 72.81%.

`COC(=O)[C@@H]1C[C@H](c2ccccc2)Nc2ccccc21` (relative stereo) [Example 88, methyl (2R*, 4R*)-2-phenyl-1,2,3,4-tetrahydroquinolin-4-carboxylate] was tested. Which “Ferroptosis inhibition rate (%)” value did it give?
Its value is 97.70%.

Which “Ferroptosis inhibition rate (%)” value does the source give for `OC[C@@H]1C[C@H](c2ccccc2)Nc2ccccc21` (relative stereo) [Example 89, ((2R*,4R*)-2-phenyl-1,2,3,4-tetrahydroquinolin-4-yl)methanol] here?
The value was 99.12%.

How did the “Ferroptosis inhibition rate (%)” value turn out when `C[C@@H]1C[C@H](c2ccccc2)Nc2ccccc21` (relative stereo) [Example 90, (2R*,4R*)-4-methyl-2-phenyl-1,2,3,4-tetrahydroquinoline] was run?
Its value is 102.4%.

For `c1ccc2c(c1)CCC(c1cn[nH]c1)N2` (centres unmarked) [Example 12, 2-(1H-pyrazol-4-yl)-1,2,3,4-tetrahydroquinoline], which “Ferroptosis inhibition rate (%)” value is on record?
Its value is 110.9%.

With `c1ccc2c(c1)CCC(c1cn[nH]c1)N2` (centres unmarked) [Example 13, 2-(1H-pyrazol-4-yl)-1,2,3,4-tetrahydroquinoline] as the compound, how does the “Ferroptosis inhibition rate (%)” value read?
The value was 119.6%.

`COc1ccc(C2CCc3ccccc3N2)cn1` (centres unmarked) [Example 15, 2-(6-methoxypyridin-3-yl)-1,2,3,4-tetrahydroquinoline] was tested. Which “Ferroptosis inhibition rate (%)” value did it give?
The value was 89.22%.

For `CC(C)(O)c1ccc(C2CCc3ccccc3N2)cc1` (centres unmarked) [Example 18, 2-(4-(1,2,3,4-tetrahydroquinolin-2-yl)phenyl)propan-2-ol], which “Ferroptosis inhibition rate (%)” value is on record?
The value was 66.52%.

`NS(=O)(=O)c1cccc(C2CCc3ccccc3N2)c1` (centres unmarked) [Example 19, 3-(1,2,3,4-tetrahydroquinolin-2-yl)benzenesulfonamide] was tested. Which “Ferroptosis inhibition rate (%)” value did it give?
The value was 100.5%.

For `NS(=O)(=O)c1ccccc1C1CCc2ccccc2N1` (centres unmarked) [Example 20, 2-(1,2,3,4-tetrahydroquinolin-2-yl)benzenesulfonamide], which “Ferroptosis inhibition rate (%)” value is on record?
The value was 95.88%.

With `c1ccc2c(c1)CCC(c1cc[nH]n1)N2` (centres unmarked) [Example 22, 2-(1H-pyrazol-3-yl)-1,2,3,4-tetrahydroquinoline] as the compound, how does the “Ferroptosis inhibition rate (%)” value read?
The value was 103.2%.

`O=C1CCc2cc(C3CCc4ccccc4N3)ccc2N1` (centres unmarked) [Example 23, 1,2,3,3′,4,4′-hexahydro-[2,6′-biquinolin]-2′(1′H)-one] was tested. Which “Ferroptosis inhibition rate (%)” value did it give?
The value was 68.45%.

With `CN1C(=O)CCc2cc(C3CCc4ccccc4N3)ccc21` (centres unmarked) [Example 24, 1′-methyl-1,2,3,3′,4,4′-hexahydro-[2,6′-biquinolin]-2′(1′H)-one] as the compound, how does the “Ferroptosis inhibition rate (%)” value read?
Its value is 59.67%.

How did the “Ferroptosis inhibition rate (%)” value turn out when `O=C1NCc2cc(C3CCc4ccccc4N3)ccc21` (centres unmarked) [Example 25, 5-(1,2,3,4-tetrahydroquinolin-2-yl)isoindolin-1-one] was run?
Its value is 105.3%.

Which “Ferroptosis inhibition rate (%)” value does the source give for `CCN(CC)C(=O)c1ccc(C2CCc3ccccc3N2)cc1` (centres unmarked) [Example 39, N,N-diethyl-4-(1,2,3,4-tetrahydroquinolin-2-yl)benzamide] here?
Its value is 101.5%.

Which “Ferroptosis inhibition rate (%)” value does the source give for `CCNC(=O)c1ccc(C2CCc3ccccc3N2)cc1` (centres unmarked) [Example 40, N-ethyl-4-(1,2,3,4-tetrahydroquinolin-2-yl)benzamide] here?
Its value is 111.1%.

Which “Ferroptosis inhibition rate (%)” value does the source give for `O=C(c1ccc(C2CCc3ccccc3N2)cc1)N1CCCCC1` (centres unmarked) [Example 41, piperidin-1-yl(4-(1,2,3,4-tetrahydroquinolin-2-yl)phen-yl)methanone] here?
The value was 102.2%.

Which “Ferroptosis inhibition rate (%)” value does the source give for `O=C(c1ccc(C2CCc3ccccc3N2)cc1)N1CCOCC1` (centres unmarked) [Example 42, morpholino(4-(1,2,3,4-tetrahydroquinolin-2-yl)phenyl)methanone] here?
Its value is 98.89%.

Which “Ferroptosis inhibition rate (%)” value does the source give for `CN1CCN(C(=O)c2ccc(C3CCc4ccccc4N3)cc2)CC1` (centres unmarked) [Example 43, (4-methylpiperazin-1-yl)(4-(1,2,3,4-tetrahydroquinolin-2-yl)phenyl)methanone] here?
Its value is 107.1%.

With `N#Cc1cccc(C2CCc3ccccc3N2)c1` (centres unmarked) [Example 45, 3-(1,2,3,4-tetrahydroquinolin-2-yl)benzonitrile] as the compound, how does the “Ferroptosis inhibition rate (%)” value read?
Its value is 109.1%.

`NC(=O)c1cccc(C2CCc3ccccc3N2)c1` (centres unmarked) [Example 46, 3-(1,2,3,4-tetrahydroquinolin-2-yl)benzamide] was tested. Which “Ferroptosis inhibition rate (%)” value did it give?
Its value is 109.0%.

For `OCc1ccccc1C1CCc2ccccc2N1` (centres unmarked) [Example 47, (2-(1,2,3,4-tetrahydroquinolin-2-yl)phenyl)methanol], which “Ferroptosis inhibition rate (%)” value is on record?
The value was 85.21%.

With `OCc1cccc(C2CCc3ccccc3N2)c1` (centres unmarked) [Example 48, (3-(1,2,3,4-tetrahydroquinolin-2-yl)phenyl)methanol] as the compound, how does the “Ferroptosis inhibition rate (%)” value read?
The value was 81.80%.

For `OCc1ccc(C2CCc3ccccc3N2)cc1` (centres unmarked) [Example 49, (4-(1,2,3,4-tetrahydroquinolin-2-yl)phenyl)methanol], which “Ferroptosis inhibition rate (%)” value is on record?
The value was 99.20%.

Which “Ferroptosis inhibition rate (%)” value does the source give for `c1ccc2c(c1)CCC(c1cnsc1)N2` (centres unmarked) [Example 50, 4-(1,2,3,4-tetrahydroquinolin-2-yl)isothiazole] here?
The value was 103.2%.

With `CC(C)c1ccc2c(c1)CCC(c1ccccc1)N2` (centres unmarked) [Example 54, 6-isopropyl-2-phenyl-1,2,3,4-tetrahydroquinoline] as the compound, how does the “Ferroptosis inhibition rate (%)” value read?
Its value is 109.9%.

For `Oc1ccc2c(c1)CCC(c1ccccc1)N2` (centres unmarked) [Example 55, 2-phenyl-1,2,3,4-tetrahydroquinolin-6-ol], which “Ferroptosis inhibition rate (%)” value is on record?
The value was 93.72%.

How did the “Ferroptosis inhibition rate (%)” value turn out when `CC(C)(O)c1ccc2c(c1)CCC(c1ccccc1)N2` (centres unmarked) [Example 57, 2-(2-phenyl-1,2,3,4-tetrahydroquinolin-6-yl)propan-2-ol] was run?
The value was 89.18%.

`c1ccc(C2CCc3cc(CN4CCOCC4)ccc3N2)cc1` (centres unmarked) [Example 59, 4-((2-phenyl-1,2,3,4-tetrahydroquinolin-6-yl)methyl)morph-oline] was tested. Which “Ferroptosis inhibition rate (%)” value did it give?
The value was 76.73%.

Same assay, conditions: evaluation concentration 50 μmol/L, Erastin 3 μmol/L, 24 hours

For `COc1ccc(C2CCc3ccccc3N2)cc1` (centres unmarked) [Example 4, 2-(4-methoxyphenyl)-1,2,3,4-tetrahydroquinoline], which “Ferroptosis inhibition rate (%)” value is on record?
Its value is 99.10%.

For `COc1cccc(C2CCc3ccccc3N2)c1` (centres unmarked) [Example 5, 2-(3-methoxyphenyl)-1,2,3,4-tetrahydroquinoline], which “Ferroptosis inhibition rate (%)” value is on record?
Its value is 99.69%.

With `COc1ccccc1C1CCc2ccccc2N1` (centres unmarked) [Example 6, 2-(2-methoxyphenyl)-1,2,3,4-tetrahydroquinoline] as the compound, how does the “Ferroptosis inhibition rate (%)” value read?
Its value is 90.22%.

For `COc1ccc2c(c1)CCC(c1ccc3c(c1)OCO3)N2` (centres unmarked) [Example 7, 2-(benzo[d][1,3]dioxol-5-yl)-6-methoxy-1,2,3,4-tetrahydro-quinoline], which “Ferroptosis inhibition rate (%)” value is on record?
Its value is 93.95%.

Which “Ferroptosis inhibition rate (%)” value does the source give for `COc1ccc(C2CCc3ccc(OC)cc3N2)cc1` (centres unmarked) [Example 8, 7-methoxy-2-(4-methoxyphenyl)-1,2,3,4-tetrahydroquinoline] here?
The value was 100.6%.

`c1ccc2c(c1)CCC(c1ccc3c(c1)OCO3)N2` (centres unmarked) [Example 9, 2-(benzo[d][1,3]dioxol-5-yl)-1,2,3,4-tetrahydroquinoline] was tested. Which “Ferroptosis inhibition rate (%)” value did it give?
The value was 88.84%.

`FC(F)(F)c1ccccc1C1CCc2ccccc2N1` (centres unmarked) [Example 10, 2-(2-(trifluoromethyl)phenyl)-1,2,3,4-tetrahydroquinoline] was tested. Which “Ferroptosis inhibition rate (%)” value did it give?
Its value is 103.9%.

With `Cn1cc(C2CCc3ccccc3N2)cn1` (centres unmarked) [Example 14, 2-(1-methyl-1H-pyrazol-4-yl)-1,2,3,4-tetrahydroquinoline] as the compound, how does the “Ferroptosis inhibition rate (%)” value read?
Its value is 97.39%.

Which “Ferroptosis inhibition rate (%)” value does the source give for `COC(=O)c1ccc(C2CCc3ccccc3N2)cc1` (centres unmarked) [Example 17, methyl 4-(1,2,3,4-tetrahydroquinolin-2-yl)benzoate] here?
Its value is 98.12%.

How did the “Ferroptosis inhibition rate (%)” value turn out when `Fc1cccc(C2CCc3ccccc3N2)c1` (centres unmarked) [Example 27, 2-(3-fluorophenyl)-1,2,3,4-tetrahydroquinoline] was run?
Its value is 113.1%.

With `Fc1ccccc1C1CCc2ccccc2N1` (centres unmarked) [Example 28, 2-(2-fluorophenyl)-1,2,3,4-tetrahydroquinoline] as the compound, how does the “Ferroptosis inhibition rate (%)” value read?
The value was 109.4%.

`FC(F)(F)c1cccc(C2CCc3ccccc3N2)c1` (centres unmarked) [Example 30, 2-(3-(trifluoromethyl)phenyl)-1,2,3,4-tetrahydroquinoline] was tested. Which “Ferroptosis inhibition rate (%)” value did it give?
Its value is 83.09%.

How did the “Ferroptosis inhibition rate (%)” value turn out when `CNC(=O)c1cccc(C2CCc3ccccc3N2)c1` (centres unmarked) [Example 44, N-methyl-3-(1,2,3,4-tetrahydroquinolin-2-yl)benzamide] was run?
Its value is 114.3%.

Which “Ferroptosis inhibition rate (%)” value does the source give for `OCc1cccc2c1CCC(c1ccccc1)N2` (centres unmarked) [Example 51, (2-phenyl-1,2,3,4-tetrahydroquinolin-5-yl)methanol] here?
Its value is 84.55%.

With `OCc1ccc2c(c1)NC(c1ccccc1)CC2` (centres unmarked) [Example 52, (2-phenyl-1,2,3,4-tetrahydroquinolin-7-yl)methanol] as the compound, how does the “Ferroptosis inhibition rate (%)” value read?
Its value is 74.96%.

`c1ccc(C2CCc3ccccc3N2)nc1` (centres unmarked) [Example 53, 2-(pyridin-2-yl)-1,2,3,4-tetrahydroquinoline] was tested. Which “Ferroptosis inhibition rate (%)” value did it give?
The value was 111.3%.

How did the “Ferroptosis inhibition rate (%)” value turn out when `COC(=O)c1ccc2c(c1)CCC(c1ccccc1)N2` (centres unmarked) [Example 56, methyl 2-phenyl-1,2,3,4-tetrahydroquinoline-6-carboxylate] was run?
Its value is 100.1%.

Which “Ferroptosis inhibition rate (%)” value does the source give for `CC(C)(C)OC(=O)Nc1ccc2c(c1)CCC(c1ccccc1)N2` (centres unmarked) [Example 63, tert-butyl (2-phenyl-1,2,3,4-tetrahydroquinolin-6-yl)carbamate] here?
The value was 68.73%.
